Source: patent publication US20140051706A1 (PRISM PHARMA CO., LTD., priority 2011, published 2014)

Assay: Plasma stability test
Assay type: in vitro ADME
Conditions: human fresh plasma; read-out: ½t (plasma half-life)
Description: In the tables mentioned below, data indicated by “½t” means data of plasma half-life (minutes) is determined by plasma stability test that mentioned below.
Determination of Plasma half life was carried out according to the following procedure using the fresh plasma.
1. 0.025 mg/mL spiking solution A: add 10 μL of 0.5 mg/mL stock solution to 190 μL of DMSO. 2. Add 90 μL of plasma into the wells designated for all the time points (0, 5, 10, 30, 60, 90, 120, 240 min). 3. Add 10 μL of pre-warmed spiking solution A into the wells designated for all the time points (0, 5, 10, 30, 60, 90, 120, 240 min). Immediately, add 400 μL of ACN containing IS into the wells designated for 0 min, then start timing. 4. At 5, 10, 30, 60, 90, 120, 240 min, add 400 μL of ACN containing IS into the wells, respectively. 5. Protein is precipitated by centrifugation (4000 rpm, 15 min). 6. Transfer 50 μL of supernatant into 50 μL of ultra-pure water (Millipore) in a 96-well sample plate for LC-MS/MS analysis.

| half-life at 2.5 µg/mL | Structure (SMILES) |
| --- | --- |
| 0.733 h | CC(=O)Oc1ccc(C[C@H]2C(=O)N(Cc3cccc4cccnc34)[C@@H](C)C3N2C(=O)CN(C)N3C(=O)NCc2ccccc2)cc1 (stereo partly drawn) [Example I-1, 4-(((6S,9S)-1-(benzylcarbamoyl)-2,9-dimethyl-4,7-dioxo-8-(quinolin-8-ylmethyl)octahydro-1H-pyrazino[2,1-c][1,2,4]triazin-6-yl)methyl)phenyl acetate] |
| 2.75 h | CCCCC(=O)Oc1ccc(C[C@H]2C(=O)N(Cc3cccc4cccnc34)[C@@H](C)C3N2C(=O)CN(C)N3C(=O)NCc2ccccc2)cc1 (stereo partly drawn) [Example I-2, 4-(((6S,9S)-1-(benzylcarbamoyl)-2,9-dimethyl-4,7-dioxo-8-(quinolin-8-ylmethyl)octahydro-1H-pyrazino[2,1-c][1,2,4]triazin-6-yl)methyl)phenyl pentanoate] |
| 2.77 h | CCCCCCCCC(=O)Oc1ccc(C[C@H]2C(=O)N(Cc3cccc4cccnc34)[C@@H](C)C3N2C(=O)CN(C)N3C(=O)NCc2ccccc2)cc1 (stereo partly drawn) [Example I-3, 4-(((6S,9S)-1-(benzylcarbamoyl)-2,9-dimethyl-4,7-dioxo-8-(quinolin-8-ylmethyl)octahydro-1H-pyrazino[2,1-c][1,2,4]triazin-6-yl)methyl)phenyl nonanoate] |
